From patent publication US20230391792A1, “METHODS AND COMPOSITIONS FOR TARGETED PROTEIN DEGRADATION” (Ranok Therapeutics (Hangzhou) Co. Ltd., priority 2020, published 2023)

Target: T1, HSP90α protein (N-terminal) (Homo sapiens, UniProt P07900)
T1 construct: purchased BPS Bioscience #50298
Test: HSP90α-binding fluorescent polarization (FP) assay, competition with BODIPY-labeled RNK04010
Conditions: probe RNK04010 (BODIPY-labeled) 5 nM, 25° C. 300 min
Procedure: Binding of test compounds to HSP90α protein was measured by fluorescent polarization (FP) using the HSP90α (N-terminal) Assay Kit (BPS Bioscience, #50298), following the manufacturer's instructions, except as noted. Fluorescently labeled HSP90-binding compounds, either the provided FITC-geldanamycin (5 nM final concentration) or RNK04010, a triazolone-based HSP90-binding small molecule labeled with BODIPY through a piperizine-phenyl linker (5 nM final concentration) were employed. A 2.5-fold serial dilution of each test compound ranging from 20 μM to 5.2 nM was assayed for binding to HSP90α. After the final step of adding HSP90α protein to each assay well, plates were mixed by brief shaking, incubated at 25° C. for 120 min for FITC-geldanamycin or 300 min for RNK04010, and fluorescence was measured using a PerkinElmer EnVision Plate Reader.
HSP90α-binding fluorescent polarization (FP) assays measuring competition with the fluorescently labeled HSP90 binders, FITC-geldanamycin or RNK04010 (BODIPY-labeled), were applied to assess the binding capabilities of CHAMP molecules to HSP90.

SMILES	IC50 [nM]
Cc1sc2c(c1C)C(c1ccc(Cl)cc1)=N[C@@H](CC(=O)N1CCC(CCN3CCC(Cc4ccc(-n5c(O)nnc5-c5cc(C(C)C)c(O)cc5O)cc4)CC3)CC1)c1nnc(C)n1-2 [Compound 55]	< 100
Cc1sc2c(c1C)C(c1ccc(Cl)cc1)=N[C@@H](CC(=O)N[C@H](C)c1cccc(CN3CCC(Cc4ccc(-n5c(O)nnc5-c5cc(C(C)C)c(O)cc5O)cc4)CC3)c1)c1nnc(C)n1-2 [Compound 56]	< 100
CCNC(=O)c1nnc(-c2cc(CC)c(O)cc2O)n1-c1ccc(CN2CCN(CC3CCN(C(=O)C[C@@H]4N=C(c5ccc(Cl)cc5)c5c(sc(C)c5C)-n5c(C)nnc54)CC3)CC2)cc1 [Compound 59]	< 100
Cc1sc2c(c1C)C(c1ccc(Cl)cc1)=N[C@@H](CC(=O)NCc1ccc(CN3CCC(Cc4ccc(-n5c(O)nnc5-c5cc(C(C)C)c(O)cc5O)cc4)CC3)cc1)c1nnc(C)n1-2 [Compound 60]	< 100
Cc1sc2c(c1C)C(c1ccc(Cl)cc1)=N[C@@H](CC(=O)N(C)[C@@H](C)c1ccc(CN3CCC(Cc4ccc(-n5c(O)nnc5-c5cc(C(C)C)c(O)cc5O)cc4)CC3)cc1)c1nnc(C)n1-2 [Compound 63]	100 to 1000
CCN(Cc1ccc(OCCCNC(=O)C[C@@H]2N=C(c3ccc(Cl)cc3)c3c(sc(C)c3C)-n3c(C)nnc32)cc1)Cc1ccc(-n2c(C(=O)NCC(F)(F)F)nnc2-c2cc(C(C)C)c(O)cc2O)cc1 [Compound 72]	100 to 1000
CCc1cc(-c2nnc(C(=O)NC(C)C)n2-c2ccc(CN3CCN(CC4CCN(C(=O)C[C@@H]5N=C(c6ccc(Cl)cc6)c6c(sc(C)c6C)-n6c(C)nnc65)CC4)CC3)cc2)c(O)cc1O [Compound 74]	< 100
Cc1sc2c(c1C)C(c1ccc(Cl)cc1)=N[C@@H](CC(=O)N1CCC(CN3CCN(Cc4ccc(-n5c(C(=O)NCCN6CCCCC6)nnc5-c5cc(C(C)C)c(O)cc5O)cc4)CC3)CC1)c1nnc(C)n1-2 [Compound 76]	< 100
Cc1sc2c(c1C)C(c1ccc(Cl)cc1)=N[C@@H](CC(=O)N1CCC(CN3CCN(Cc4ccc(-n5c(C(=O)NC(C)C)nnc5-c5cc(C(C)C)c(O)cc5O)cc4)CC3)CC1)c1nnc(C)n1-2 [Compound 77]	100 to 1000
Cc1sc2c(c1C)C(c1ccc(Cl)cc1)=N[C@@H](CC(=O)N1CCC(CN3CCN(Cc4ccc(-n5c(C(N)=O)nnc5-c5cc(C(C)C)c(O)cc5O)cc4)CC3)CC1)c1nnc(C)n1-2 [Compound 78]	< 100
CCc1cc(-c2nnc(C(=O)NCCN3CCCCC3)n2-c2ccc(CN3CCN(CC4CCN(C(=O)C[C@@H]5N=C(c6ccc(Cl)cc6)c6c(sc(C)c6C)-n6c(C)nnc65)CC4)CC3)cc2)c(O)cc1O [Compound 82]	< 100
COc1cccc(-c2cc(C(=O)Nc3ccc(-c4ccc(OC5CCN(C)CC5)cc4OCCN(C)C(=O)CNC(=O)C[C@@H]4N=C(c5ccc(Cl)cc5)c5c(sc(C)c5C)-n5c(C)nnc54)cc3)ccc2OC)c1 [Compound 83]	> 1000
COc1cccc(-c2cc(C(=O)Nc3ccc(-c4ccc(OC5CCN(C(=O)C[C@@H]6N=C(c7ccc(Cl)cc7)c7c(sc(C)c7C)-n7c(C)nnc76)CC5)cc4OCCN(C)C)cc3)ccc2OC)c1 [Compound 84]	> 1000
CCN(CC)CCNC(=O)c1nnc(-c2cc(C(C)C)c(O)cc2O)n1-c1ccc(CN2CCN(CC3CCN(C(=O)C[C@@H]4N=C(c5ccc(Cl)cc5)c5c(sc(C)c5C)-n5c(C)nnc54)CC3)CC2)cc1 [Compound 90]	< 100
Cc1sc2c(c1C)C(c1ccc(Cl)cc1)=N[C@@H](CC(=O)N1CCC(CN3CCN(Cc4ccc(-n5c(C(=O)NC(C)C)nnc5-c5ccc(O)cc5O)cc4)CC3)CC1)c1nnc(C)n1-2 [Compound 91]	< 100
CCCc1cc(-c2nnc(C(=O)NCCN3CCCCC3)n2-c2ccc(CN3CCN(CC4CCN(C(=O)C[C@@H]5N=C(c6ccc(Cl)cc6)c6c(sc(C)c6C)-n6c(C)nnc65)CC4)CC3)cc2)c(O)cc1O [Compound 92]	< 100

SMILES	IC50 [nM]
Cc1cc(C(=O)N2Cc3ccc(CN4CCN(C(=O)C[C@@H]5N=C(c6ccc(Cl)cc6)c6c(sc(C)c6C)-n6c(C)nnc65)CC4)c(F)c3C2)c(O)cc1O [Compound 99]	> 1000
Cc1sc2c(c1C)C(c1ccc(Cl)cc1)=N[C@@H](CC(=O)N1CCN(Cc3ccc4c(c3F)CN(C(=O)c3cc(C(C)C)c(O)cc3O)C4)CC1)c1nnc(C)n1-2 [Compound 100]	100 to 1000
CCc1cc(-c2nnc(C(=O)NC3CC3)n2-c2ccc(CN3CCN(CC4CCN(C(=O)C[C@@H]5N=C(c6ccc(Cl)cc6)c6c(sc(C)c6C)-n6c(C)nnc65)CC4)CC3)cc2)c(O)cc1O [Compound 101]	< 100
CCc1cc(-c2nnc(C(=O)NC(C)C)n2-c2ccc(CN3CCN(CC4CCN(C(=O)C[C@@H]5N=C(c6ccc(Cl)cc6)c6c(sc(C)c6C)-n6c(C)nnc65)CC4)CC3)cc2)c(O)cc1O [Compound 102]	< 100
CCc1cc(-c2nnc(C(=O)NC(CC)CC)n2-c2ccc(CN3CCN(CC4CCN(C(=O)C[C@@H]5N=C(c6ccc(Cl)cc6)c6c(sc(C)c6C)-n6c(C)nnc65)CC4)CC3)cc2)c(O)cc1O [Compound 103]	100 to 1000
CCc1cc(-c2nnc(C(=O)NC3(C)CC3)n2-c2ccc(CN3CCN(CC4CCN(C(=O)C[C@@H]5N=C(c6ccc(Cl)cc6)c6c(sc(C)c6C)-n6c(C)nnc65)CC4)CC3)cc2)c(O)cc1O [Compound 104]	< 100
CCc1cc(-c2nnc(C(=O)NC(C)C(F)(F)F)n2-c2ccc(CN3CCN(CC4CCN(C(=O)C[C@@H]5N=C(c6ccc(Cl)cc6)c6c(sc(C)c6C)-n6c(C)nnc65)CC4)CC3)cc2)c(O)cc1O (some centres unmarked) [Compound 105]	100 to 1000
Cc1sc2c(c1C)C(c1ccc(Cl)cc1)=N[C@@H](CC(=O)N1CCN(Cc3ccc(-n4c(O)nnc4-c4cc(C(C)C)c(O)cc4O)cc3)[C@H](C)C1)c1nnc(C)n1-2 [Compound 106]	100 to 1000
Cc1sc2c(c1C)C(c1ccc(Cl)cc1)=N[C@@H](CC(=O)N1CCN(Cc3ccc(-n4c(O)nnc4-c4cc(C(C)C)c(O)cc4O)cc3)[C@@H](C)C1)c1nnc(C)n1-2 [Compound 107]	100 to 1000
COc1cc(O)c(C(C)C)cc1-c1nnc(O)n1-c1ccc(CN2CCN(CC3CCN(C(=O)C[C@@H]4N=C(c5ccc(Cl)cc5)c5c(sc(C)c5C)-n5c(C)nnc54)CC3)CC2)cc1 [Compound 108]	> 1000
Cc1sc2c(c1C)C(c1ccc(Cl)cc1)=N[C@@H](CC(=O)N1CCC(Cc3ccc(CN(C)Cc4ccc(-n5c(C(=O)NCC(F)(F)F)nnc5-c5cc(C(C)C)c(O)cc5O)cc4)cn3)CC1)c1nnc(C)n1-2 [Compound 109]	100 to 1000
CCOc1cc(N2CCC(C(=O)NCc3ccc(-n4c(O)nnc4-c4ccc(O)cc4O)cc3)CC2)ccc1Nc1ncc2c(n1)N(C)c1ccccc1C(=O)N2C [Compound 119]	> 1000
CCOc1cc(N2CCC(C(=O)NCc3ccc(-n4c(O)nnc4-c4cc(C)c(O)cc4O)cc3)CC2)ccc1Nc1ncc2c(n1)N(C)c1ccccc1C(=O)N2C [Compound 120]	100 to 1000
CCCc1cc(-c2nnc(O)n2-c2ccc(CNC(=O)C3CCN(c4ccc(Nc5ncc6c(n5)N(C)c5ccccc5C(=O)N6C)c(OCC)c4)CC3)cc2)c(O)cc1O [Compound 121]	> 1000
CCOc1cc(N2CCC(C(=O)NCc3ccc(-n4c(O)nnc4-c4cc(C(C)C)c(O)cc4O)cc3C(F)(F)F)CC2)ccc1Nc1ncc2c(n1)N(C)c1ccccc1C(=O)N2C [Compound 122]	100 to 1000
CCOc1cc(N2CCC(C(=O)NCc3ccc(-n4c(O)nnc4-c4cc(CC)c(O)cc4O)cc3F)CC2)ccc1Nc1ncc2c(n1)N(C)c1ccccc1C(=O)N2C [Compound 125]	> 1000
